Legend:
Test in all cases: drug sensitivity score (DSS) (DSS (unitless, 0-50 scale)); higher = more sensitive (stronger viability inhibition); extreme values may be limits of the assay
Conditions in all cases: 72 h; culture: 2D
SK-MEL-28 = system: SK-MEL-28
Summary of the method: (§1)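 Viability was measured by CellTiter-Glo luminescence after 72 h at 37 °C in 384-well plates holding a 527-compound oncology library, with patient-derived melanoma cultures (1000–1500 cells per well) and melanoma cell lines grown in 2D. Every compound was tested at five concentrations spanning a 10,000-fold range. The drug sensitivity score, a modified area under the curve, came from dose-response curves fitted with in-house Breeze software.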

WM165 = system: WM165
Summary of the method: as §1

FM-MEL-6 = system: FM-MEL-6
Summary of the method: as §1

WM852 = system: WM852
Summary of the method: as §1

FM-MEL-3 = system: FM-MEL-3
Summary of the method: as §1

FM-MEL-2 = system: FM-MEL-2
Summary of the method: as §1

Bowes = system: Bowes
Summary of the method: as §1

SK-MEL-2 = system: SK-MEL-2
Summary of the method: as §1

Structure (SMILES) | drug sensitivity score (SK-MEL-28) | drug sensitivity score (WM165) | drug sensitivity score (FM-MEL-6) | drug sensitivity score (WM852) | drug sensitivity score (FM-MEL-3) | drug sensitivity score (FM-MEL-2) | drug sensitivity score (Bowes) | drug sensitivity score (SK-MEL-2)
NC(=O)N1CCC(CC(=O)N2CCC([C@H]3c4ncc(Br)cc4CCc4cc(Cl)cc(Br)c43)CC2)CC1 [Lonafarnib] | 8.1 | 13 | 8.1 | 12.1 | 18.2 | 9.4 | 30.9 | 5.3
O=C(Nc1cccnc1)N1CCC(Cc2cccc(Oc3ccc(C(F)(F)F)cn3)c2)CC1 [PF-3845] | 0 | 1 | 0 | 4 | 0.1 | 0 | 3.8 | 0
CC1=C(/C=C/C(C)=C/C=C/C(C)=C/C(=O)O)C(C)(C)CCC1 [Tretinoin] | 0 | 0 | 0.8 | 0 | 0.7 | 0 | 5.7 | 0
COc1cc([C@@H]2c3cc4c(cc3[C@@H](O[C@@H]3O[C@@H]5CO[C@@H](C)O[C@H]5[C@H](O)[C@H]3O)[C@H]3COC(=O)[C@H]23)OCO4)cc(OC)c1O [Etoposide] | 5.9 | 19.1 | 5.7 | 0.4 | 4 | 2.9 | 2.7 | 2.6
CN[C@@H](C)C(=O)N[C@H]1CN(C(=O)CC(C)C)CC[C@H]2CC[C@@H](C(=O)NC(c3ccccc3)c3ccccc3)N2C1=O [AT-406] | 0 | 0 | 2.2 | 0 | 0 | 9.7 | 1.9 | 0.1
O=C(CCCCCCNC(=O)c1cnc(N(c2ccccc2)c2ccccc2)nc1)NO [Rocilinostat] | 3.7 | 5.7 | 6.6 | 2.3 | 6.4 | 2.8 | 2 | 3.4
Cn1cc(-c2ccc(F)c(C(F)(F)F)c2)nc1C1CCN(c2ncnc3[nH]ncc23)CC1 | 0 | 0 | 0 | 0 | 0 | 0 | 0 | 0
COc1cccc(-c2ccc(NC(=O)C3=C(C(=O)O)CCC3)c(F)c2)c1 [Vidofludimus] | 0 | 1.3 | 0 | 0 | 0.3 | 0 | 0.4 | 0
CS(=O)(=O)N1CCN(Cc2cc3nc(-c4cccc5[nH]ncc45)nc(N4CCOCC4)c3s2)CC1 [Pictilisib] | 9.6 | 8.4 | 7.4 | 6.5 | 8.8 | 12.7 | 8.4 | 3.2
CN(C)C1CCN(C(=O)c2ccc(NC(=O)Nc3ccc(-c4nc(N5CCOCC5)nc(N5CCOCC5)n4)cc3)cc2)CC1 [Gedatolisib] | 9.5 | 14.8 | 9.4 | 7.5 | 9.8 | 6.1 | 12.6 | 10.6
COCC[n+]1c2c(n(Cc3cnccn3)c1C)C(=O)c1ccccc1C2=O [Sepantronium bromide] | 34.4 | 43.2 | 22.3 | 35.2 | 41 | 21.9 | 34.6 | 36.2
C[C@]12CC[C@H](O)CC1=CC[C@@H]1[C@@H]2CC[C@]2(C)C(c3cccnc3)=CC[C@@H]12 [Abiraterone] | 0 | 0 | 0 | 0 | 0 | 0 | 0 | 0
Nc1nc(Cl)nc2c1ncn2[C@H]1C[C@H](O)[C@@H](CO)O1 [Cladribine] | 0.8 | 4.3 | 4.6 | 0.1 | 2.5 | 0 | 1.4 | 0
COc1cc(OC)cc(N(CCNC(C)C)c2ccc3ncc(-c4cnn(C)c4)nc3c2)c1 [Erdafitinib] | 0 | 0 | 0 | 0.8 | 0 | 0 | 2.4 | 0
Cc1cc(Nc2cc(N3CCN(C)CC3)nc(/C=C/c3ccccc3)n2)n[nH]1 [ENMD-2076] | 7.9 | 12.6 | 6.4 | 7.5 | 7.8 | 7.6 | 11.1 | 8.9
C[C@]1(c2nc3c(C(N)=O)cccc3[nH]2)CCCN1 [Veliparib] | 0.2 | 0.9 | 0 | 0 | 0.6 | 0.7 | 0 | 0
CC[C@]1(O)C[C@H]2CN(CCc3c([nH]c4ccccc34)[C@@](C(=O)OC)(c3cc4c(cc3OC)N(C=O)[C@H]3[C@@](O)(C(=O)OC)[C@H](OC(C)=O)[C@]5(CC)C=CCN6CC[C@]43[C@@H]65)C2)C1 [Vincristine] | 10.1 | 20.2 | 7.6 | 16.5 | 12.6 | 4.5 | 18.7 | 18.5
FC(F)(F)c1ccc(/C=C/c2nc(COc3ccc(CCCCn4ccnn4)cc3)co2)cc1 [Mubritinib] | 0 | 2.3 | 0 | 15.5 | 9.3 | 0 | 6.4 | 0
O=C(c1ccc(C(=O)N2CCC(N3CCCC3)CC2)c(Nc2ccccc2)c1)N1CCC(N2CCCC2)CC1 [UNC1215] | 0 | 0 | 0 | 0 | 0 | 0 | 0 | 0
COc1cc2ncnc(Nc3cccc(Cl)c3F)c2cc1OC(=O)N1CCN(C)C[C@H]1C [AZD3759] | 0 | 0 | 0 | 0 | 0 | 0 | 0 | 0

Structure (SMILES) | drug sensitivity score (SK-MEL-28) | drug sensitivity score (WM165) | drug sensitivity score (FM-MEL-6) | drug sensitivity score (WM852) | drug sensitivity score (FM-MEL-3) | drug sensitivity score (FM-MEL-2) | drug sensitivity score (Bowes) | drug sensitivity score (SK-MEL-2)
C/C=C1\NC(=O)[C@H]2CSSCC/C=C/[C@H](CC(=O)N[C@H](C(C)C)C(=O)N2)OC(=O)[C@H](C(C)C)NC1=O [Romidepsin] | 29 | 30 | 26.5 | 17.9 | 29.7 | 28.1 | 18.6 | 30.4
Cc1cc(C(C)Nc2ccccc2)c2nc(N3CCOCC3)cc(=O)n2c1 (stereo not given) [TGX-221] | 3.3 | 0.1 | 0.9 | 1.2 | 1.1 | 2.2 | 0.6 | 0
CCCN(CCC)C(=O)C1=Cc2ccc(-c3ccc(C(=O)N4CCCC4)cc3)cc2N=C(N)C1 [Motolimod] | 0 | 0 | 1.3 | 2.8 | 1.1 | 0.5 | 1.6 | 0
CS(=O)(=O)CCNCc1ccc(-c2ccc3ncnc(Nc4ccc(OCc5cccc(F)c5)c(Cl)c4)c3c2)o1 [Lapatinib] | 0 | 0 | 0.1 | 0 | 0.2 | 0.6 | 1.1 | 0
C[C@@H](Oc1ccc2[nH]nc(/C=C/c3cnn(CCO)c3)c2c1)c1c(Cl)cncc1Cl | 1.3 | 4.3 | 2 | 3.2 | 2.1 | 0 | 6 | 0.3
CC(C)Cn1cnc2c(N)nc3ccccc3c21 [Imiquimod] | 0 | 0 | 0 | 0.1 | 0 | 0 | 4.7 | 0
CC1(C)OCCn2c1nc1c(N3CCOCC3)nc(-c3cnc(N)nc3)nc12 [GDC-0084] | 7.7 | 8.4 | 7.8 | 7.7 | 8.4 | 9.6 | 9.4 | 8.1
CO[C@H]1C(=O)[C@]2(C)[C@@H](OC)C[C@H]3OC[C@@]3(OC(C)=O)[C@H]2[C@H](OC(=O)c2ccccc2)[C@]2(O)C[C@H](OC(=O)[C@H](O)[C@@H](NC(=O)OC(C)(C)C)c3ccccc3)C(C)=C1C2(C)C [Cabazitaxel] | 9.1 | 23.2 | 12.1 | 20.3 | 8.2 | 1.6 | 24.3 | 14.8
COc1cc(OC2CCN(C)CC2)ccc1Nc1ncc2c(n1)n(C1CCCC1)c(=O)n2C [AZ 3146] | 1.7 | 5.5 | 3 | 3.2 | 2.2 | 3.3 | 3.3 | 1.3
CCc1cncnc1N1CCN(Cc2nc3ccc(C(F)(F)F)cc3[nH]2)CC1 | 0 | 0 | 0.7 | 3.3 | 1.7 | 0.5 | 2.1 | 0
COc1cccc2c1C(=O)c1c(O)c3c(c(O)c1C2=O)C[C@@](O)(/C(CO)=N/NC(=O)CCCCCN1C(=O)C=CC1=O)C[C@@H]3O[C@H]1C[C@H](N)[C@H](O)[C@H](C)O1 [Aldoxorubicin] | 8.8 | 15.2 | 8.6 | 5.8 | 8 | 6.4 | 4.3 | 6.3
FC(F)(F)c1ccc(CNc2ccc(Cc3c[nH]c4ncc(Cl)cc34)cn2)cn1 [Pexidartinib] | 0.4 | 2.4 | 1.1 | 4.5 | 3 | 1 | 0.2 | 0
C=CC[C@@H]1/C=C(\C)C[C@H](C)C[C@H](OC)[C@H]2O[C@@](O)(C(=O)C(=O)N3CCCC[C@H]3C(=O)O[C@H](/C(C)=C/[C@@H]3CC[C@@H](O)[C@H](OC)C3)[C@H](C)[C@@H](O)CC1=O)[C@H](C)C[C@@H]2OC [Tacrolimus] | 0 | 0 | 0.1 | 0.1 | 1.3 | 1.9 | 0.6 | 0
COC(=O)N[C@@H](C)CNc1nccc(-c2cn(C(C)C)nc2-c2cc(Cl)cc(NS(C)(=O)=O)c2F)n1 [Encorafenib] | 19.6 | 19.2 | 0 | 1.4 | 1.9 | 1.3 | 0.5 | 1.1
CCCCNc1ncc(C(=O)NCc2ccc(-n3ccnc3)cc2)c(NC2CCC(O)CC2)n1 (stereo not given) [UNC2881] | 0 | 0 | 0 | 0 | 0 | 2.2 | 0 | 0
Oc1nc(-c2ccc(C(F)(F)F)cc2)nc2c1CSCC2 [XAV-939] | 0 | 0 | 0 | 0 | 0 | 0 | 0 | 0
CC(C)C[C@H](NC(=O)[C@H](Cc1ccccc1)NC(=O)c1cnccn1)B(O)O [Bortezomib] | 27.3 | 27 | 29 | 11.8 | 28.4 | 14.1 | 24.9 | 26.5
COc1nc(N)nc2c1ncn2[C@@H]1O[C@H](CO)[C@@H](O)[C@@H]1O [Nelarabine] | 0.1 | 0 | 0.1 | 0.6 | 0 | 0 | 0 | 0
CC1=C2C[C@H]3[C@@H](CC[C@@H]4C[C@H](NS(C)(=O)=O)CC[C@@]43C)[C@@H]2CC[C@@]2(C1)O[C@@H]1C[C@H](C)CN[C@H]1[C@H]2C [Saridegib] | 0 | 0.5 | 0 | 0 | 0 | 0 | 0 | 0
O=C(Nc1ccncc1)C(=O)c1cn(Cc2ccc(Cl)cc2)c2ccccc12 [Indibulin] | 4 | 7.8 | 6.9 | 5.3 | 6.1 | 1.4 | 11.1 | 3.7
